Source: US20210353668A1, “CALCIUM COMPOSITION” (PerformaNat GmbH, priority 2018, published 2021)

System: Ruminal epithelium of sheep
Assay: Measurement of Ca-flux (45Ca2+ net flux) across ruminal epithelium in the Ussing chamber
Assay type: cell-based
Experimental: Measurement of Ca-Flux Across Ruminal Epithelium in the Ussing-Chamber
Ruminal epithelium of sheep was mounted in a conventional Ussing chamber. Chambers contained 16 ml of serosal or mucosal buffer, which was circulated and gassed by a gas lift system (5% CO2/95% O2).
In this experiment 24 chambers were divided into three groups. Group 1 (mucosal buffer containing 1.8 mM CaCl2), group 2 (mucosal buffer containing 3.6 mM CaCl2) and group 3 (containing 7.2 mM CaCl2). The same buffer was present on the serosal side of all chambers (Table 1). Each group (1,2,3) was again divided into two parts. One was defined as control group one as EO group. It is noted that the amounts correspond to a normal Ca^2+ concentration in the rumen (1.8 mM) (referred to as Comparative Example A) and to treated rumen corresponding to the administration of about 13 g Ca (3.6 mM) and 26 g Ca (7.2 mM) (referred to as Examples 1 and 2, respectively).
After an equilibrating time of around 30 minutes ^45Ca^2+ (40 kBq per 16 ml chamber) was added to either to the mucosal or serosal “hot” side.
Depending on the group 16 μl ethanol (Control) or 16 μl essential oil (EO) were added to the mucosal side of the chamber. The essential oil used is menthol, and the actual menthol concentration obtained is 50 μM.
After 70 minutes the first sample from the “cold” side was taken, followed by five samples of each 900 μl which were taken in an interval of 30 minutes. The sample volume was replaced by an aliquot of the respective buffer. Radioactivity was measured using a β-counter (LKB Wallace-Perkin-Elmer, Überlingen, Germany).
Epithelia were paired after sorting for transepithelial conductance (Gt) and the net calcium flux was calculated from the difference between mucosal to serosal flux and serosal to mucosal flux for paired epithelia.
The net transport of calcium across the isolated ruminal epithelium was calculated by subtracting the calcium secretion (serosal to mucosal transport) from the calcium absorption (mucosal to serosal transport) reflecting the real absorption of calcium from the rumen to the blood side. For statistical analysis linear mixed effect models for repeated measures were calculated using mucosal calcium concentration and the addition of essential oils as fixed effects and animal as random effect (SAS System, method MIXED PROC). The effects of calcium concentration and the addition of essential oils was calculated as well as their interaction. Furthermore, the effect of sampling time was included to the model. Effects were evaluated for the repeated measures of the consecutive flux periods.

## CC1CCC(C(C)C)C(O)C1 (stereo not shown) [menthol]
All three Ca concentrations (1.8, 3.6, 7.2 mM), menthol present
  calcium flux compared to the control (in words): increased
Mucosal Ca 1.8 mM
  increase of calcium absorption by addition of EO: 6.06 nmol/cm^2/h
Mucosal Ca 3.6 mM
  increase of calcium absorption by addition of EO: 2.52 nmol/cm^2/h
Mucosal Ca 7.2 mM
  increase of calcium absorption by addition of EO: 8.22 nmol/cm^2/h
